Assay results from PubChem BioAssay AID330 (DTP/NCI, 2004).
Values joined by “and” are separate entries in the source; they are usually repeats but may differ in a detail not shown here. Equal values may be shown once. Toxic doses and inconclusive results are not listed. The calls were made as follows: active = survival T/C of 150% or more; inactive = T/C below 125% in these data.

Tested on: P388 leukemia ip, CD2F1 mice, survival T/C
Test: NCI In Vivo Anticancer Drug Screen. Data for tumor model P388 Leukemia (intraperitoneal) in CD2F1 (CDF1) mice
Details: endpoint: median survival time, higher = longer survival
Outline: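 Mice carrying the transplanted tumor received test compound or vehicle. Survival was recorded in each group, and the value is the treated-group measurement divided by that of the vehicle-treated control group.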

[1] = dose: 50.0 mg/kg/injection, schedule: Q01DX009 (ip), vehicle: Klucel (hydroxypropylcellulose) (HPC)
[2] = dose: 100.0 mg/kg/injection, schedule: Q01DX009 (ip), vehicle: Klucel (hydroxypropylcellulose) (HPC)
[3] = dose: 200.0 mg/kg/injection, schedule: Q01DX009 (ip), vehicle: Klucel (hydroxypropylcellulose) (HPC)
[4] = dose: 200.0 mg/kg/injection, schedule: Q01DX009 (ip), vehicle: saline with Tween-80
[5] = dose: 50.0 mg/kg/injection, schedule: Q01DX005 (ip), vehicle: saline with Tween-80
[6] = dose: 100.0 mg/kg/injection, schedule: Q01DX005 (ip), vehicle: saline with Tween-80
[7] = dose: 200.0 mg/kg/injection, schedule: Q01DX005 (ip), vehicle: saline with Tween-80
[8] = dose: 50.0 mg/kg/injection, schedule: Q01DX009 (ip), vehicle: saline
[9] = dose: 100.0 mg/kg/injection, schedule: Q01DX009 (ip), vehicle: saline
[10] = dose: 200.0 mg/kg/injection, schedule: Q01DX009 (ip), vehicle: saline
[11] = dose: 50.0 mg/kg/injection, schedule: Q01DX005 (ip), vehicle: Klucel (hydroxypropylcellulose) (HPC)
[12] = dose: 100.0 mg/kg/injection, schedule: Q01DX005 (ip), vehicle: Klucel (hydroxypropylcellulose) (HPC)
[13] = dose: 200.0 mg/kg/injection, schedule: Q01DX005 (ip), vehicle: Klucel (hydroxypropylcellulose) (HPC)
[14] = dose: 100.0 mg/kg/injection, schedule: Q01DX001 (ip), vehicle: Klucel (hydroxypropylcellulose) (HPC)
[15] = dose: 200.0 mg/kg/injection, schedule: Q01DX001 (ip), vehicle: Klucel (hydroxypropylcellulose) (HPC)
[16] = dose: 50.0 mg/kg/injection, schedule: Q01DX009 (ip), vehicle: saline with Tween-80
[17] = dose: 100.0 mg/kg/injection, schedule: Q01DX009 (ip), vehicle: saline with Tween-80

Measured: T/C

O=[N+]([O-])c1ccc(N/N=C/c2ccc(Cl)cc2)nc1
inactive: dose: 6.25 mg/kg/injection, schedule: Q01DX009 (ip), vehicle: Klucel (hydroxypropylcellulose) (HPC) 87 % of control | dose: 12.5 mg/kg/injection, schedule: Q01DX009 (ip), vehicle: Klucel (hydroxypropylcellulose) (HPC) 89 % of control | dose: 25.0 mg/kg/injection, schedule: Q01DX009 (ip), vehicle: Klucel (hydroxypropylcellulose) (HPC) 91 % of control | [1] 91 % of control | [2] 98 % of control | [3] 105 % of control and 89 % of control | [4] 91 % of control and 93 % of control | dose: 400.0 mg/kg/injection, schedule: Q01DX009 (ip), vehicle: saline with Tween-80 112 % of control

CCOC(=O)/C(=C/c1ccco1)C(C)=O
inactive: [2] 102 % of control | [3] 110 % of control

COc1cc([N+](=O)[O-])ccc1C(=O)Nc1c2ccccc2nc2ccccc12
inactive: dose: 25.0 mg/kg/injection, schedule: Q01DX005 (ip), vehicle: saline with Tween-80 95 % of control | [5] 107 % of control | [6] 92 % of control | [7] 92 % of control

CCc1nnc2c(C)c(C)nc(C)n12
inactive: dose: 100.0 mg/kg/injection, schedule: Q04DX003 (ip), vehicle: saline with Tween-80 94 % of control | dose: 200.0 mg/kg/injection, schedule: Q04DX003 (ip), vehicle: saline with Tween-80 100 % of control

CC1C(=O)C(C)C(c2ccc(Cl)cc2)OC1c1ccc(Cl)cc1 (stereo not drawn)
inactive: [8] 112 % of control | [9] 103 % of control | [10] 114 % of control

O=C1N=c2ccccc2=C1c1sc(=O)n(Cc2nc3ccccc3[nH]2)c1O
inactive: [11] 102 % of control | [12] 97 % of control | [13] 93 % of control

COc1cccc(-c2nnc(-n3cc(-c4ccccc4)cc3N)s2)c1
inactive: dose: 50.0 mg/kg/injection, schedule: Q01DX001 (ip), vehicle: Klucel (hydroxypropylcellulose) (HPC) 104 % of control | [14] 95 % of control | [15] 89 % of control

O=S1(=O)Cc2ccccc21
inactive: [14] 92 % of control | [15] 98 % of control

Cc1ncc([N+](=O)[O-])n1CCOC(=O)c1ccc(F)cc1
inactive: [16] 99 % of control | [17] 92 % of control | [4] 97 % of control

CCc1ccc(C(C)(C)C)cc1
inactive: dose: 37.5 mg/kg/injection, schedule: Q01DX009 (ip), vehicle: saline with Tween-80 110 % of control | [16] 104 % of control | dose: 75.0 mg/kg/injection, schedule: Q01DX009 (ip), vehicle: saline with Tween-80 111 % of control | [17] 109 % of control | dose: 132.0 mg/kg/injection, schedule: Q01DX009 (ip), vehicle: saline with Tween-80 113 % of control | dose: 150.0 mg/kg/injection, schedule: Q01DX009 (ip), vehicle: saline with Tween-80 102 % of control

CC1(C)Cc2ccccc2/C1=C/c1ccccn1
inactive: dose: 60.0 mg/kg/injection, schedule: Q01DX005 (ip), vehicle: saline with Tween-80 98 % of control | dose: 120.0 mg/kg/injection, schedule: Q01DX005 (ip), vehicle: saline with Tween-80 100 % of control | dose: 240.0 mg/kg/injection, schedule: Q01DX005 (ip), vehicle: saline with Tween-80 108 % of control

CC(=O)OC1CCC2C3CCc4cc(OP(=O)(N5CC5)N5CC5)ccc4C3CCC12C (stereo not drawn)
inactive: [16] 92 % of control | [17] 114 % of control | [4] 108 % of control

Cc1nc2ccc3c(ccc4nc(C)c(N=Nc5ccc(C(=N)N)cc5)c(O)c43)c2c(O)c1N=Nc1ccc(C(=N)N)cc1
inactive: [5] 114 % of control | [6] 116 % of control | [7] 116 % of control

CC(=O)OCC1OC(n2cc(F)c(=O)[nH]c2=O)CC1OC(C)=O (stereo not drawn)
inactive: [16] 100 % of control | [17] 118 % of control | [4] 86 % of control

Cn1c(=O)c2c(c3cc(O)ccc31)OC(C(C)(C)O)C2 (stereo not drawn)
inactive: [11] 95 % of control | [12] 96 % of control | [13] 86 % of control

CCc1cccc(CC)c1N1C(=O)C2=C(SCCCS2)C1=O
inactive: [8] 98 % of control | [9] 102 % of control | [10] 107 % of control

C=CCC(C(=O)O)C1(C(=O)O)CCCCCC1 (stereo not drawn)
inactive: dose: 100.0 mg/kg/injection, schedule: Q04DX002 (ip), vehicle: saline with Tween-80 94 % of control | dose: 200.0 mg/kg/injection, schedule: Q04DX002 (ip), vehicle: saline with Tween-80 93 % of control | dose: 400.0 mg/kg/injection, schedule: Q04DX002 (ip), vehicle: saline with Tween-80 92 % of control

O/N=C\c1ccccc1P(c1ccccc1/C=N\O)c1ccccc1/C=N\O
inactive: dose: 100.0 mg/kg/injection, schedule: Q01DX001 (ip), vehicle: saline with Tween-80 87 % of control | dose: 200.0 mg/kg/injection, schedule: Q01DX001 (ip), vehicle: saline with Tween-80 89 % of control

C/C(=N\NS(=O)(=O)c1ccc(C)cc1)c1c(C)noc1C
inactive: [1] 94 % of control | [2] 99 % of control | [3] 100 % of control

Cc1ccc(S(=O)(=O)N/N=C/c2ccc(N(C)C)cc2)cc1
inactive: dose: 12.5 mg/kg/injection, schedule: Q01DX009 (ip), vehicle: other 113 % of control | dose: 25.0 mg/kg/injection, schedule: Q01DX009 (ip), vehicle: other 96 % of control | dose: 50.0 mg/kg/injection, schedule: Q01DX009 (ip), vehicle: other 109 % of control | dose: 100.0 mg/kg/injection, schedule: Q01DX009 (ip), vehicle: other 100 % of control | dose: 200.0 mg/kg/injection, schedule: Q01DX009 (ip), vehicle: other 106 % of control | dose: 400.0 mg/kg/injection, schedule: Q01DX009 (ip), vehicle: other 100 % of control

c1cc(-c2cc3cc(C4=NCCN4)ccc3s2)ccc1C1=NCCN1
inactive: dose: 25.0 mg/kg/injection, schedule: Q04DX003 (ip), vehicle: saline 115 % of control | dose: 50.0 mg/kg/injection, schedule: Q04DX003 (ip), vehicle: saline 111 % of control | dose: 100.0 mg/kg/injection, schedule: Q04DX003 (ip), vehicle: saline 98 % of control

CC(C)CC1N=C(NN=C(CCl)CCl)OP1(=O)NCCCCCCNP1(=O)OC(NN=C(CCl)CCl)=NC1CC(C)C (stereo not drawn)
inactive: dose: 60.0 mg/kg/injection, schedule: Q01DX005 (ip), vehicle: Klucel (hydroxypropylcellulose) (HPC) 106 % of control

O=C(O)c1ccccc1.O=C(O)c1ccccc1.O=C(O)c1ccccc1.O=C(O)c1ccccc1.[Cu].[Cu]
inactive: dose: 7.5 mg/kg/injection, schedule: Q01DX005 (ip), vehicle: Klucel (hydroxypropylcellulose) (HPC) 99 % of control | dose: 15.0 mg/kg/injection, schedule: Q01DX005 (ip), vehicle: Klucel (hydroxypropylcellulose) (HPC) 97 % of control

O=C1C2CC3CC4C(=O)C5CC1C1C2C3C4C51 (stereo not drawn)
inactive: [16] 94 % of control | [17] 102 % of control | [4] 97 % of control

CCCCc1ccc(C(N)=O)nc1
inactive: [11] 104 % of control | [12] 99 % of control

CC(C)NCCCNC(=S)C(=S)NCCCNC(C)C
inactive: [11] 100 % of control | [12] 94 % of control

OC(c1cc(-c2ccccc2)nc2ccc(Cl)cc12)C1CCCCN1 (stereo not drawn)
inactive: [5] 97 % of control | [6] 90 % of control | [7] 99 % of control

Nc1[nH]c(=O)ncc1C(=O)NC(CO)C(=O)O (stereo not drawn)
inactive: dose: 6.25 mg/kg/injection, schedule: Q01DX009 (ip), vehicle: saline with Tween-80 90 % of control | dose: 12.5 mg/kg/injection, schedule: Q01DX009 (ip), vehicle: saline with Tween-80 100 % of control | dose: 25.0 mg/kg/injection, schedule: Q01DX009 (ip), vehicle: saline with Tween-80 95 % of control

O=C1CSC(c2cccc(Cl)c2)N1CCN1C(=O)CSC1c1cccc(Cl)c1 (stereo not drawn)
inactive: [5] 100 % of control | [6] 93 % of control | [7] 86 % of control

C/C(=N\NC(=S)N1CCC(C)CC1)c1nccnc1C
inactive: dose: 6.0 mg/kg/injection, schedule: Q01DX005 (ip), vehicle: Klucel (hydroxypropylcellulose) (HPC) 108 % of control | dose: 12.0 mg/kg/injection, schedule: Q01DX005 (ip), vehicle: Klucel (hydroxypropylcellulose) (HPC) 106 % of control | dose: 25.0 mg/kg/injection, schedule: Q01DX005 (ip), vehicle: Klucel (hydroxypropylcellulose) (HPC) 106 % of control
